Source: PMC7217877, “N-AS-triggered SPMs are direct regulators of microglia in a model of Alzheimer’s disease” (Nature Communications, 2020)
Values joined by “and” are separate entries in the source; they are usually repeats but may differ in a detail not shown here. Identical values can stand only once.

Key:
APP/PS1 mice [1] = test: Iba1+ microglia and GFAP+ astrocyte quantification in cortex (Fig 6h,i); format: in vivo, mouse
Description: Thioflavin S (Sigma-Aldrich) staining was carried out according to previously described procedures. We used 6E10 (mouse, 1:100, Signet, SIG39300), anti-20G10 (mouse, 1:1000, provided by D. R. Howlett, GlaxoSmithKline, Harlow, Essex, UK) for Aβ42, anti-G30 (rabbit, 1:1000, provided by D. R. Howlett) for Aβ40, SMA (mouse, 1:400, Sigma-Aldrich, A2547), AT8 (mouse, 1:500, Thermo Fisher Scientific, MN1020), Caspase-3 (mouse, 1:200, Novus Biologicals, NB100-56708), ac-S565 (rabbit, 1:100), COX2 (mouse, 1:250, Thermo Fisher Scientific, 35-8200), Iba1 (rabbit, 1:500, Wako, 019-19941 and goat, Abcam, ab5076), NeuN (mouse, 1:500, Millipore, MAB177), GFAP (rabbit, 1:500, Dako, N1506 and chicken, 1:500, Abcam, ab4674), and Lamp1 (mouse, 1:200, Abcam, ab24170). The sections were analyzed with a laser-scanning confocal microscope (FV3000; Olympus) or with a BX51 microscope (Olympus). MetaMorph software (Molecular Devices) was used to quantification. Three-dimensional reconstruction of microglia was recorded and analyzed using IMARIS software (Bitplane)[11]. For the analysis of age-dependent microglial COX2^+ CX3CR1^+ cells in WT and APP/PS1 mice, COX2 (rabbit, 1:100, Abcam, ab15191) and CX3CR1 (mouse, 1:100, BioLegend, 149008) antibody were used and the images were acquired on Alexa 488 and APC Channel with performed using Operetta CLS and Analysis Software 4.5 (Perkin-Elmer).
Transgenic mouse lines over-expressing the hAPP695swe (APP) and presenilin-1M146V (PS1) mutations were originated from GlaxoSmithKline (Harlow, UK)[32] and maintained as described previously. We purchased 5×FAD mice from Jackson Labs (Stock number. 34840-JAX). Because APP/PS1 and 5xFAD mice show sex differences in disease progression, we used only male mice. To examine possible therapeutic effect of N-AS and aspirin in APP/PS1 mice, the N-AS (30 mg kg^−1, Sigma-Aldrich, 01912) was injected daily s.c. for 8 weeks to 7-months-old APP/PS1 mice until the age of 9 months, and aspirin (2 mg kg^−1, Sigma-Aldrich, A5376)[33] was administrated orally to 7-months-old APP/PS1 mice for 8 weeks. […]

APP/PS1 mice [2] = test: western blot of synaptophysin, MAP2, synapsin1, PSD95 in cortex (Supplementary Fig 7a-d); format: in vivo, mouse; design: synaptophysin (western blot, cortex) / MAP2 (western blot, cortex) / synapsin1 (western blot, cortex): scale not given here
Description: Samples were lysed in RIPA buffer (Cell signaling Technologies), then subjected to SDS-PAGE and transferred to a nitrocellulose membrane. Membranes were blocked with 5% milk, incubated with primary antibody and then incubated with the appropriate horseradish peroxidase-conjugated secondary antibody. […] We performed densitometric quantification using the ImageJ software (National Institutes of Health). Images have been cropped for presentation.
Transgenic mouse lines over-expressing the hAPP695swe (APP) and presenilin-1M146V (PS1) mutations were originated from GlaxoSmithKline (Harlow, UK)[32] and maintained as described previously. We purchased 5×FAD mice from Jackson Labs (Stock number. 34840-JAX). Because APP/PS1 and 5xFAD mice show sex differences in disease progression, we used only male mice. To examine possible therapeutic effect of N-AS and aspirin in APP/PS1 mice, the N-AS (30 mg kg^−1, Sigma-Aldrich, 01912) was injected daily s.c. for 8 weeks to 7-months-old APP/PS1 mice until the age of 9 months, and aspirin (2 mg kg^−1, Sigma-Aldrich, A5376)[33] was administrated orally to 7-months-old APP/PS1 mice for 8 weeks. Also, to confirm possible therapeutic efficacy of N-AS in 5×FAD, the N-AS (30 mg kg^−1, Sigma-Aldrich, 01912) was injected daily s.c. for 4 weeks to 3-months-old 5×FAD mice until the age of 4 months. Block randomization method was used to allocate the animals to experimental groups. To eliminate the bias, we were blinded in experimental progress such as data collection and data analysis. Mice were housed at temperature of 22 °C and a 12 h day/12 h night cycle with free access to tap water and food pellets. All protocols were approved by the Kyungpook National University Institutional Animal Care and Use Committee.

COX2 T564A = biological target: T1, COX2 T564A (Homo sapiens, UniProt P35354, T564A); test: filter binding assay of [14C] N-AS to COX2; details: 0.2 uM, replicates
T1 construct: His (N); made in house
T1 sequence (P35354 18-604 T564A): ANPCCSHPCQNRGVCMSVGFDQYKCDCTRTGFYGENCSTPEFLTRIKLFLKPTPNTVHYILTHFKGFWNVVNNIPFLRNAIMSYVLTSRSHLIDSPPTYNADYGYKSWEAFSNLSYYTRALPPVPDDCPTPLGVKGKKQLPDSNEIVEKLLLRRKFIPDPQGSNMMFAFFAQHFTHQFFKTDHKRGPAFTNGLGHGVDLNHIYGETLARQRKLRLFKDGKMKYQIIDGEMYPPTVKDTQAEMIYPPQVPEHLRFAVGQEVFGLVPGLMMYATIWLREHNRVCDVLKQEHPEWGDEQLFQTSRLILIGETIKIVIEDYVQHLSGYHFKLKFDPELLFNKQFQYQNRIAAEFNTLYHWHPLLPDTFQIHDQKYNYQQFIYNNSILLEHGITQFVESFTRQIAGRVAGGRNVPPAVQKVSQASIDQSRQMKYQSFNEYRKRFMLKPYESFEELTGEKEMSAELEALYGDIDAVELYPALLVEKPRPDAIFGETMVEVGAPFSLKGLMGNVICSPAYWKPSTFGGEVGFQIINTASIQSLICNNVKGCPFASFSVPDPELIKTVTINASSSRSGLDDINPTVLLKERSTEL

[3] = APP/PS1 + N-AS, individual animals

SMILES: CCCCCCCCCCCCC/C=C/[C@@H](O)[C@H](CO)NC(C)=O [N-AS, N-((2S,3R,E)-1,3-Dihydroxyoctadec-4-en-2-yl)acetamide]
- GFAP+ astrocyte quantification (Figure 6i) (APP/PS1 mice [1]; [3]): 2.9 and 1.684 and 2.972 and 1.386 and 1.661 and 0.8495 and 1.293 and 1.379
- Iba1+ microglia quantification (Figure 6h) (APP/PS1 mice [1]; [3]): 0.2355 and 0.191 and 0.3245 and 0.8739 and 0.8648 and 0.875 and 0.5574 and 0.579 and 0.4301
- inflammatory response (Iba1+ microglia, GFAP+ astrocyte) (APP/PS1 mice [1]; N-AS vs vehicle APP/PS1): improved
- synaptophysin (western blot, cortex) (APP/PS1 mice [2]; APP/PS1 + N-AS, sFig 7a (sheet untitled)): 2.567 and 3.1595 and 2.9069 and 1.677 and 2.527 and 2.054
- MAP2 (western blot, cortex) (APP/PS1 mice [2]; APP/PS1 + N-AS, sFig 7b (sheet untitled)): 0.7541 and 0.8231 and 0.7626 and 0.741 and 0.7343 and 0.8145
- synapsin1 (western blot, cortex) (APP/PS1 mice [2]; APP/PS1 + N-AS, sFig 7c (sheet untitled)): 0.7506 and 0.7227 and 0.685 and 0.6922 and 0.6413
- PSD95 (western blot, cortex) (APP/PS1 mice [2]; APP/PS1 + N-AS, sFig 7d (sheet untitled)): 0.7284 and 0.7208 and 0.6479 and 0.6548 and 0.6748 and 0.6067
- expression levels of synaptophysin, MAP2, synapsin1, PSD95 (APP/PS1 mice [2]; N-AS vs APP/PS1): restored
- binding velocity (Vbinding) (COX2 T564A): 0.196 nM/min and 0.240 nM/min and 0.096 nM/min
